Legend:
Assay in all cases: relative viability (nuclei count vs DMSO), 5 days (fraction); higher = more cells survive
Ibrutinib + Pemetrexed = compound: C=CC(=O)N1CCC[C@@H](n2nc(-c3ccc(Oc4ccccc4)cc3)c3c(N)ncnc32)C1 [Ibrutinib] + Nc1nc2[nH]cc(CCc3ccc(C(=O)N[C@@H](CCC(=O)O)C(=O)O)cc3)c2c(=O)[nH]1 [Pemetrexed] (partner 0.2 µM)
Method in brief: (§1)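 Relative viability equals treated-well nuclei counts divided by vehicle-well nuclei counts. Counts came from 4× images of lung cancer cell lines grown in 1536-well plates for 5 days after pin-tool dosing on the day after seeding. Dosing used one drug alone or a fixed anchor-drug dose plus five library-drug doses (not always all listed) in √10 steps, and values are medians of duplicate plates.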

PAC-1 + Navitoclax = compound: C=CCc1cccc(/C=N/NC(=O)CN2CCN(Cc3ccccc3)CC2)c1O [PAC-1] + CC1(C)CCC(c2ccc(Cl)cc2)=C(CN2CCN(c3ccc(C(=O)NS(=O)(=O)c4ccc(N[C@H](CCN5CCOCC5)CSc5ccccc5)c(S(=O)(=O)C(F)(F)F)c4)cc3)CC2)C1 [Navitoclax] (partner 0.5 µM)
Method in brief: as §1

BMX-IN-1 + Pictilisib = compound: C=CC(=O)Nc1cc(-n2c(=O)ccc3cnc4ccc(-c5ccc(NS(C)(=O)=O)cc5)cc4c32)ccc1C [BMX-IN-1] + CS(=O)(=O)N1CCN(Cc2cc3nc(-c4cccc5[nH]ncc45)nc(N4CCOCC4)c3s2)CC1 [Pictilisib] (partner 1 µM)
Method in brief: as §1

PAC-1 + Tozasertib = compound: C=CCc1cccc(/C=N/NC(=O)CN2CCN(Cc3ccccc3)CC2)c1O [PAC-1] + Cc1cc(Nc2cc(N3CCN(C)CC3)nc(Sc3ccc(NC(=O)C4CC4)cc3)n2)n[nH]1 [Tozasertib] (partner 0.1 µM)
Method in brief: as §1

Cell Line	relative viability (Ibrutinib + Pemetrexed; first compound 0.005 µM)	relative viability (Ibrutinib + Pemetrexed; first compound 0.01581 µM)	relative viability (Ibrutinib + Pemetrexed; first compound 0.05 µM)	relative viability (Ibrutinib + Pemetrexed; first compound 0.1581 µM)	relative viability (Ibrutinib + Pemetrexed; first compound 0.5 µM)	relative viability (PAC-1 + Navitoclax; first compound 0.02 µM)	relative viability (PAC-1 + Navitoclax; first compound 0.06325 µM)	relative viability (PAC-1 + Navitoclax; first compound 0.2 µM)	relative viability (PAC-1 + Navitoclax; first compound 2 µM)	relative viability (BMX-IN-1 + Pictilisib; first compound 0.02 µM)	relative viability (BMX-IN-1 + Pictilisib; first compound 0.2 µM)	relative viability (BMX-IN-1 + Pictilisib; first compound 0.6325 µM)	relative viability (BMX-IN-1 + Pictilisib; first compound 2 µM)	relative viability (PAC-1 + Tozasertib; first compound 0.02 µM)	relative viability (PAC-1 + Tozasertib; first compound 0.06325 µM)	relative viability (PAC-1 + Tozasertib; first compound 0.2 µM)	relative viability (PAC-1 + Tozasertib; first compound 2 µM)
201T	0.296	0.301	0.363	0.363	0.507	1.21	1.23	1.21	1.16	0.752	0.72	0.71	0.695	0.876	1	0.956	0.883
A549						1.25	1.18	1.14	1.23	0.69	0.757	0.56	0.517				
A-427	0.986	0.995	0.961		1.02	1	0.92	0.908	0.907	0.796	0.83	0.948	0.78	0.176	0.209	0.231	0.2
ABC-1										0.802	0.75	0.847	0.394	0.144	0.186	0.197	0.195
BEN	0.489	0.757	0.637	0.469	0.785	0.0891	0.0706	0.0845	0.0674	0.643	0.741	0.513	0.596	0.621	0.541	0.511	0.466
CAL-12T	1.26	1.19	1.12	1.26	1.27	1.43	1.21	1.31	1.26	0.527	0.425	0.47	0.422	0.265	0.315	0.327	0.293
COR-L23	0.211	0.179	0.204	0.198	0.235	0.874	0.984	0.908	0.999	1.1	1.3	0.76	0.855	0.203	0.304	0.192	0.214
COR-L 105	0.778	1.16	0.855	1.06	0.692	0.852	0.725	1.38	0.841	0.383	0.4	0.481	0.4	0.318	0.323	0.383	0.374
Calu-6						0.817	0.861	0.878	0.855	1.14	1.21	1.09	0.866				
ChaGo-K-1	0.254	0.263	0.264	0.261	0.271	1.2	1.08	1.21	1.08	0.66	0.64	0.858	0.614	0.214	0.217	0.223	0.218
EBC-1						0.382	0.336	0.443	0.33	0.249	0.303	0.382	0.255				
EKVX	0.33	0.419	0.359	0.336	0.222	1.07	0.926	0.86	0.979	0.522	0.439	0.442	0.404	0.426	0.393	0.339	0.365
EMC-BAC-2	0.527	0.449	0.541		0.714	1.14	1.22	1.19	1.14	0.556	0.562	0.621	0.506	0.297	0.263	0.265	0.274
EPLC-272H	0.317	0.325	0.412	0.268	0.344		1.09	1	1.04	0.35	0.31	0.304	0.377	0.257	0.314	0.273	0.278
H3255	0.511	0.553	0.456	0.557	0.407	0.544	0.537	0.561	0.595	0.437	0.461	0.592	0.488	0.66	0.656	0.606	0.638
HARA	0.243	0.22	0.249	0.207	0.242	1.15	1.11	1.14	1.15	0.4	0.284	0.482	0.397	0.108	0.115	0.136	0.111
HCC-15	0.238	0.223	0.238	0.235	0.322	0.735	0.685	0.676	0.74	0.721	0.818	0.798	0.844	0.398	0.458	0.449	0.378
HCC-44	0.711	0.669	0.624	0.64	0.987	1.01	0.977	0.978	1.01	0.732	0.687	0.836	0.622	0.989	1.04	0.94	0.877
HCC-78		0.84	0.892	0.879	0.93	0.719	0.748	0.699	0.646	0.214	0.18	0.242	0.249	0.486	0.399	0.496	0.342
HCC-366	0.259	0.247	0.307	0.241	0.704	1.13	1.01	1.1	1.09	0.124	0.666	0.137	0.16	0.117	0.0944	0.121	0.0773
HCC-827	0.22	0.248	0.24	0.246	0.168	1.04	0.986	0.983	0.989	1.03	1.15	1.04	1.05	0.397	0.401	0.4	0.421
HOP-62	0.415	0.32	0.434	0.446	0.879	1.04	1.02	0.58	0.988	0.639	0.761	0.929	0.688	0.346	0.395	0.349	0.355
IA-LM						0.78	0.92	0.632	0.657	0.337	0.403	0.427	0.386				

Cell Line	relative viability (Ibrutinib + Pemetrexed; first compound 0.005 µM)	relative viability (Ibrutinib + Pemetrexed; first compound 0.01581 µM)	relative viability (Ibrutinib + Pemetrexed; first compound 0.05 µM)	relative viability (Ibrutinib + Pemetrexed; first compound 0.1581 µM)	relative viability (Ibrutinib + Pemetrexed; first compound 0.5 µM)	relative viability (PAC-1 + Navitoclax; first compound 0.02 µM)	relative viability (PAC-1 + Navitoclax; first compound 0.06325 µM)	relative viability (PAC-1 + Navitoclax; first compound 0.2 µM)	relative viability (PAC-1 + Navitoclax; first compound 2 µM)	relative viability (BMX-IN-1 + Pictilisib; first compound 0.02 µM)	relative viability (BMX-IN-1 + Pictilisib; first compound 0.2 µM)	relative viability (BMX-IN-1 + Pictilisib; first compound 0.6325 µM)	relative viability (BMX-IN-1 + Pictilisib; first compound 2 µM)	relative viability (PAC-1 + Tozasertib; first compound 0.02 µM)	relative viability (PAC-1 + Tozasertib; first compound 0.06325 µM)	relative viability (PAC-1 + Tozasertib; first compound 0.2 µM)	relative viability (PAC-1 + Tozasertib; first compound 2 µM)
LC-2-ad	0.279	0.272	0.274	0.258	0.293	0.464	0.427	0.35	0.331	0.645	0.555	0.619	0.482	0.456	0.48	0.357	0.449
LCLC-97TM1	0.234	0.208	0.22	0.232	0.249		0.395	0.307	0.62	0.189	0.197	0.274	0.207	0.22	0.286	0.217	0.225
LCLC-103H	0.43	0.467	0.467	0.464	0.544					0.636	0.612	0.684	0.609	0.56	0.492	0.494	0.463
LK-2	0.194	0.328	0.263	0.225	0.26	0.816	0.805	0.88	0.845	0.8	0.696	0.543	0.59	0.174	0.186	0.199	0.175
LOU-NH91	0.426	0.404	0.449	0.377	0.543	0.651	0.718	0.672	0.673		0.509	0.546	0.512	0.624	0.7	0.645	0.679
LU99A	0.217	0.211	0.205	0.206	0.412	0.939	0.836	0.717	0.801	0.309	0.382	0.39	0.301	0.309	0.254	0.247	0.286
LXF-289	0.936	0.927	0.915	0.81	1.01	0.944	0.948	0.932	0.927	0.808	0.863	0.88	0.761	0.148	0.234	0.197	0.165
NCI-H23	0.698	0.614	0.845	0.527	0.812	0.569	0.891	0.793	0.881	0.483	0.495	0.582	0.411	0.323	0.384	0.366	0.383
NCI-H322M	0.659	0.572	0.605	0.537	0.536	1.23	1.27	1.28	1.23	0.558	0.505	0.532	0.583	0.496	0.537	0.467	0.477
NCI-H358	0.165	0.18		0.171	0.16					0.387	0.313	0.393	0.336	0.103	0.101	0.0952	0.109
NCI-H522	1.12	0.789	0.795	0.925	0.956									0.598	0.582	0.62	0.469
NCI-H650	1.03	0.881	0.885	1.15	1.1					1.02	0.826	0.872	0.772	0.73	0.791	0.749	0.721
NCI-H661	0.868	0.927	0.89	0.902	0.8					0.349	0.436	0.368	0.316	0.364	0.332	0.348	0.331
NCI-H727						0.425	0.452	0.352	0.42	0.439	0.416	0.403	0.337	0.679	0.585	0.589	0.602
NCI-H1299						1.04	1.03	1.06	1.04	0.838	0.934	0.906	0.563				
NCI-H1563	0.623	0.812	0.741	0.706	0.657					0.601	0.629	0.655	0.684				
NCI-H1623														0.42	0.43	0.427	0.482
NCI-H1648	0.796	0.655	0.569	0.961	0.751									0.6	0.606	0.464	0.488
NCI-H1703						1.4	0.998	0.958	0.959	0.248	0.265	0.248	0.225				
NCI-H1792		0.67	0.96	0.818	0.596	0.613	0.563	0.621	0.681	0.321	0.299	0.227	0.253				
NCI-H2342	0.455	0.806	0.618	0.723	0.715									0.521	0.564	0.525	0.61
SW 900	0.456	0.48	0.478	0.482	0.49									0.581	0.61	0.473	0.465

Source: the supplement of paper PMC10307832
